From patent US12486253B2, “Therapeutics for the degradation of mutant BRAF” (C4 THERAPEUTICS, INC., priority 2021, dated 2025)
Where “and” joins values, the source holds several entries; their conditions need not be identical. Equal entries are not always repeated.

Target: BRAF V600E (Homo sapiens, UniProt P15056, V600E)
Assay: HiBiT cellular BRAF^V600E degradation assay
Assay type: cell-based
Settings: A375.10 cells, 24 h; for DC50: concentration at which 50% of total cellular BRAF^V600E is degraded; for Emax: read-out: HiBit 24 h Emax
[1] = residual protein remaining in the cell

Chain of BRAF V600E (P15056 whole entry V600E): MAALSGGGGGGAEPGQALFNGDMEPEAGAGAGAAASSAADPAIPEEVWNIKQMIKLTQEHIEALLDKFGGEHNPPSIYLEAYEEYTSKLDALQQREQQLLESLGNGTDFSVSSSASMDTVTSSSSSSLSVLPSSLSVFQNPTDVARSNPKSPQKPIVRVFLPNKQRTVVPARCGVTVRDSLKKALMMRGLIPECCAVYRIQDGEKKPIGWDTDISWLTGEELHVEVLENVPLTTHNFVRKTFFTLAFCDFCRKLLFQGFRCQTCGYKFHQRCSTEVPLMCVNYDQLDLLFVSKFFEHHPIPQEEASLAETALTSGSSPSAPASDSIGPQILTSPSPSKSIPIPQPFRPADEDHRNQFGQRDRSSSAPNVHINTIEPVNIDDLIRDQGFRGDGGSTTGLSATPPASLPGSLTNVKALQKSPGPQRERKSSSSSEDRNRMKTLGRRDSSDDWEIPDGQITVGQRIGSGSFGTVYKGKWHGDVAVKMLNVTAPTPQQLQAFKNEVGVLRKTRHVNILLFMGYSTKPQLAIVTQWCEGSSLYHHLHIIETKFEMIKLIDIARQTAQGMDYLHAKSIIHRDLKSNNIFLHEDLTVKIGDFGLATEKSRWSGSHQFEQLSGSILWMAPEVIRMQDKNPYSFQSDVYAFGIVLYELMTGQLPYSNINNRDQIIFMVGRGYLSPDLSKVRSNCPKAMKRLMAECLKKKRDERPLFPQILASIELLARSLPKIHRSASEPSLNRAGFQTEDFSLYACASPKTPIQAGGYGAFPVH

DC50 [µM]	Emax [1] [%]	HiBit 24 h Emax [1]	SMILES
0.0469	13.9	–	CCN(C)S(=O)(=O)Nc1ccc(F)c(Oc2ccc3ncn(CCC4CCN(C(=O)CN5CCC(c6ccc(NC7CCC(=O)NC7=O)cc6F)CC5)CC4)c(=O)c3c2)c1C#N (stereo not drawn) [Example 1, 6-[2-cyano-3-[[ethyl(methyl)sulfamoyl]amino]-6-fluorophenoxy]-3-[2-[1-[2-[4-[4-[(2,6-dioxopiperidin-3-yl)amino]-2-fluorophenyl]piperidin-1-yl]acetyl]piperidin-4-yl]ethyl]-4-oxoquinazoline]
–	–	8.5% and 8.05%	CCN(C)S(=O)(=O)Nc1ccc(F)c(Oc2ccc3ncn([C@H]4COC5(CCN(C6CCC(c7ccc(NC8CCC(=O)NC8=O)cc7F)CC6)CC5)C4)c(=O)c3c2)c1C#N (single isomer, unassigned) [Example 131]
0.0246	11.1	–	CCN(C)S(=O)(=O)Nc1ccc(F)c(Oc2ccc3ncn([C@H]4CCC5(CCN(C(=O)CN6CCC(c7ccc8c(N9CCC(=O)NC9=O)nn(C)c8c7)CC6)CC5)C4)c(=O)c3c2)c1C#N [Example 154, 6-[2-cyano-3-[[ethyl(methyl)sulfamoyl]amino]-6-fluorophenoxy]-3-[(3S)-8-[2-[4-[3-(2,4-dioxo-1,3-diazinan-1-yl)-1-methylindazol-6-yl]piperidin-1-yl]acetyl]-8-azaspiro[4.5]decan-3-yl]-4-oxoquinazoline]
0.0178	10.9	–	N#Cc1c(NS(=O)(=O)C2CCCC2)ccc(F)c1Oc1ccc2ncn(-c3cnc(N4CCN(C(=O)CN5CCC(c6ccc(N[C@@H]7CCC(=O)NC7=O)cc6F)CC5)CC4)nc3)c(=O)c2c1 [Example 108, N-[2-cyano-3-[3-[2-[4-[2-[4-[4-[[(3R)-2,6-dioxopiperidin-3-yl]amino]-2-fluorophenyl]piperidin-1-yl]acetyl]piperazin-1-yl]pyrimidin-5-yl]-4-oxoquinazolin-6-yl]oxy-4-fluorophenyl]cyclopentanesulfonamide]

More lines, now with the values behind:

SMILES	DC50 [µM]	Emax [1] [%]	HiBit 24 h Emax [1]
CCN(C)S(=O)(=O)Nc1ccc(F)c(Oc2ccc3ncn([C@H]4COC5(CCN(C(=O)CC6(O)CCN(c7cc8c(cc7F)c(N7CCC(=O)NC7=O)nn8C)CC6)CC5)C4)c(=O)c3c2O)c1C#N [Example 186, (3R)-3-[6-[2-cyano-3-[[ethyl(methyl)sulfamoyl]amino]-6-fluorophenoxy]-5-hydroxy-4-oxoquinazolin-3-yl]-8-[2-[1-[3-(2,4-dioxo-1,3-diazinan-1-yl)-5-fluoro-1-methylindazol-6-yl]-4-hydroxypiperidin-4-yl]acetyl]-1-oxa-8-azaspiro[4.5]decane]	0.0163	25.1	–
CCN(C)S(=O)(=O)Nc1ccc(F)c(Oc2ccc3ncn([C@@H]4COC5(CCN(C(=O)CN6CCC(c7ccc(NC8CCC(=O)NC8=O)cc7F)CC6)CC5)C4)c(=O)c3c2)c1C#N (single isomer, unassigned) [Example 33]	0.0326	8.77	–
CCN(C)S(=O)(=O)Nc1ccc(F)c(Oc2ccc3ncn(-c4ccc(N5CCN(C(=O)CN6CCC(c7ccc(N[C@@H]8CCC(=O)NC8=O)cc7F)CC6)CC5)nc4)c(=O)c3c2)c1C#N [Example 93, 6-[2-cyano-3-[[ethyl(methyl)sulfamoyl]amino]-6-fluorophenoxy]-3-[6-[4-[2-[4-[4-[[(3R)-2,6-dioxopiperidin-3-yl]amino]-2-fluorophenyl]piperidin-1-yl]acetyl]piperazin-1-yl]pyridin-3-yl]-4-oxoquinazoline]	0.028	14.1	–
CCN(C)S(=O)(=O)Nc1ccc(F)c(Oc2ccc3ncn([C@H]4CCC5(CCN(C(=O)CN6CCC(c7ccc8c(C9CCC(=O)NC9=O)nn(C)c8c7)CC6)CC5)C4)c(=O)c3c2)c1Cl (stereo partly drawn) [Example 166, 6-[2-chloro-3-[[ethyl(methyl)sulfamoyl]amino]-6-fluorophenoxy]-3-[(3S)-8-[2-[4-[3-(2,6-dioxopiperidin-3-yl)-1-methylindazol-6-yl]piperidin-1-yl]acetyl]-8-azaspiro[4.5]decan-3-yl]-4-oxoquinazoline]	0.0345	23.5	–
